# Measured values as given in patent publication US20190231688A1, “METHOD OF ADMINISTERING EMULSION FORMULATIONS OF AN NK-1 RECEPTOR ANTAGONIST” (Heron Therapeutics, Inc., priority 2018, published 2019).
# Assay: Pharmacokinetics of aprepitant emulsion versus fosaprepitant solution, intravenous
# Assay type: in vivo, male Sprague-Dawley rats
# Conditions: rat, 14 mg/kg aprepitant equivalent
# Description: The pharmacokinetics of an aprepitant emulsion prepared according to Example 1 was determined. Two groups of six male Sprague-Dawley rats each were injected intravenously with, respectively, fosaprepitant in solution or aprepitant emulsion prepared according to Example 1. All drugs were administered at an effective concentration equivalent to 14 mg/kg aprepitant. Blood from all rats was collected at the appropriate time intervals and processed to plasma by centrifugation. Plasma samples were analyzed by LC-MS/MS for aprepitant and fosaprepitant, as appropriate. A plasma concentration versus time curve of aprepitant for the emulsion described in Example 1 and for fosaprepitant is presented in FIG. 2 (fosaprepitant in solution, •; aprepitant emulsion, ▴). The curves indicate the initial aprepitant level reached immediately after injection of the aprepitant emulsion was almost 3 times higher than the initial aprepitant level reached immediately after injection of the fosaprepitant solution.
compound,measurement,value
C[C@@H](O[C@H]1OCCN(Cc2nc(O)n(P(=O)(O)O)n2)[C@H]1c1ccc(F)cc1)c1cc(C(F)(F)F)cc(C(F)(F)F)c1 [fosaprepitant],Conversion of fosaprepitant to aprepitant,delay in the conversion of fosaprepitant to aprepitant
